In patent publication US20070059264A1, “Reduction of hair growth” (priority 2005, published 2007):

Test system: axillary (armpit) hair growth
Experiment: Axillary hair growth reduction in human subjects (hair length by image analysis)
Assay type: in vivo
Details: for Hair Length (μm): Example 1 including 3% DFMO once a day to armpit, six human subjects; for % Reduction (hair length): Example 1 including 3% DFMO vs Right Guard roll-on vehicle
Protocol: Example 1, including 3% DFMO, was tested in six human subjects to determine the effectiveness of the composition for reducing hair growth. The composition was applied once a day to one armpit in a subject; Right Guard® roll-on product was applied once daily to the other armpit. The hair length measurements were made at select time intervals using a semi automated image analysis system. For these measurements, the subjects shaved both armpits and then digital images of the treatment areas (DFMO and Vehicle) were taken at 24, 48, and 72 hr later. The number of hairs measured per site ranged from 58 to 87.
The results after six weeks and 16 weeks are shown below.

[1] = after 6 weeks, 24 Hrs after shaving
[2] = after 6 weeks, 48 Hrs after shaving
[3] = after 6 weeks, 72 Hrs after shaving
[4] = after 16 weeks, 24 Hrs after shaving
[5] = after 16 weeks, 48 Hrs after shaving
[6] = after 16 weeks, 72 Hrs after shaving

NCCCC(N)(C(=O)O)C(F)F (stereo not drawn) [DFMO, α-Difluoromethylomithine]
Hair Length (μm) [1]: 274 ± 15 μm | % Reduction (hair length) [1]: 48 ± 3% | Hair Length (μm) [2]: 509 ± 26 μm | % Reduction (hair length) [2]: 49 ± 3% | Hair Length (μm) [3]: 867 ± 34 μm | % Reduction (hair length) [3]: 46 ± 2% | Hair Length (μm) [4]: 170 ± 16 μm | % Reduction (hair length) [4]: 66 ± 3% | Hair Length (μm) [5]: 273 ± 23 μm | % Reduction (hair length) [5]: 73 ± 3% | Hair Length (μm) [6]: 326 ± 24 μm | % Reduction (hair length) [6]: 75 ± 2%
